Columns and labels:
[1] = test system: full-length Gaussia princeps luciferase; experiment: Activity of full-length Gaussia luciferase alone in H4 cells; assay type: cell-based
Description: (§1) For controls in this assay, vehicle (i.e., DMSO), rapamycin, and bafilomycin A were used. Rapamycin, or sirolimus, is a small molecule that activates autophagy by inhibiting mTOR (mammalian target of rapamycin). […] To test this possibility, cells expressing α-synuclein were treated with each of the compounds and a cell permeable, resazurin-based assay was used to test for cell viability.
(§2) H4 neuroglioma cells (ATCC, HTB-148) were maintained in Dulbecco's Modified Eagle Medium plus high glucose, L-glutamine, and sodium pyruvate (ThermoFisher, 11995-065) with 10% heat-inactivated fetal bovine serum (ThermoFisher, 16140071) and 1% antibiotic-antimycotic cocktail (ThermoFisher, 15240062) at 37° C. and 5% CO2. DNA expression constructs encoding for full-length human α-synuclein fused to the N-terminal fragment of Gaussia princeps luciferase (syn-luc1), full-length human α-synuclein fused to the C-terminal fragment of Gaussia princeps luciferase (syn-luc2), and full-length Gaussia princeps luciferase were kindly provided by Dr. Pamela McLean, Mayo Clinic Jacksonville.^33 Cells were transiently co-transfected with syn-luc1 and syn-luc2 or transfected with luciferase alone using Superfect transfection reagent (Qiagen, 301305) according to the manufacturer's instructions. Twenty-four hours after transfection, cells were plated on a 96-well microplate at 60,000 cells per well. Twenty-four hours after plating, cells were treated with drugs or vehicle control. Following 24 hours of treatment, cells were washed 1 time with PBS and bioluminescence was measured using an automated CLARIOstar plate reader (Mandel, 430-0505). Cell permeable, native coelenterazine was used as the Gaussia luciferase substrate. Lyophilized coelenterazine (Nanolight, 303-500) was reconstituted in NanoFuel Solvent (Nanolight, 399-1), then diluted in PBS to 16.6 μg/mL, and dispensed per well to a final concentration of 20 μM). The bioluminescent signal generated by the luciferase enzyme was assessed at 470 nm over 5 seconds. Raw luminescence units were normalized to the DMSO vehicle control of each 96-well microplate. To assess cell viability, H4 neuroglioma cells were prepared and treated as described above and, 1 hour prior to viability analysis, cells were treated with PrestoBlue viability reagent (ThermoFisher, A13261) according to the manufacturer's instructions. Fluorescence was automatically measured using a CLARIOstar plate reader (Mandel, 430-0505) and then normalized to the fluorescence measure of the DMSO vehicle control.

α-synuclein oligomers [2] = target: T1, α-synuclein oligomers (Homo sapiens, UniProt P37840); experiment: Venus YFP protein-fragment complementation assay in rat primary cortical neurons; assay type: cell-based; details: 72 hours; for YFP fluorescence compared with vehicle control: 10 μM
α-synuclein oligomers [3] = target: T1, α-synuclein oligomers; experiment: Gaussia luciferase protein-fragment complementation cell assay of α-synuclein oligomers in H4 neuroglioma cells; assay type: cell-based; parameters: full-length human α-synuclein fused to the N-terminal fragment of Gaussia princeps luciferase (syn-luc1); full-length human α-synuclein fused to the C-terminal fragment of Gaussia princeps luciferase (syn-luc2); expressed in transfected cells; host or cells: H4 neuroglioma cells (ATCC, HTB-148), transient co-transfection; details: for α-syn oligomers as measured by luciferase activity / decrease in luciferase activity compared with vehicle alone: 1 μM or 10 μM; for α-syn oligomers as measured by luciferase activity: Example 9; for decrease in luciferase activity compared with vehicle alone: 24 hours of treatment
Description: as §1, §2
We used a bioluminescent protein-fragment complementation assay in which human H4 neuroglioma cells co-express human α-synuclein tagged with the N- or C-terminal half of Gaussia princeps luciferase (FIG. 12). Reconstitution of a complete and active luciferase molecule from the fragments occurs upon α-synuclein oligomerization, and so luminescence provides an indirect measure of α-synuclein oligomer levels. H4 neuroglioma cells were co-transfected with α-syn luciferase fragments, and constructs were plated into a 96-well plate and treated with either 1 μM or 10 μM of each of the 19 drug compounds.

H4 neuroglioma cells = details: for reduced cell survival: human, 24 h
Description: as §1, §2

[4] = test system: transgenic A30P α-synuclein C. elegans; experiment: Coiler score and locomotion of C. elegans expressing A30P α-synuclein in dopaminergic neurons; assay type: in vivo, Caenorhabditis elegans; details: for reduction in coiling compared with vehicle alone (decrease): 100 μM of drug, 3 days on drug plates
Description: Using high-resolution, multi-worm tracking with custom image processing, methods were developed for semi-automated and blinded scoring of circularity for a population of simultaneously recorded animals (n=10 per recording). A coiler score was determined for the population tested by first calculating the circularity value for each animal in each frame of video and then calculating the proportion of circularity values >0.6. […] The coiler phenotype is an abnormal motor behaviour previously reported for several unc C. elegans strains with mutations affecting neuronal function.
Animals were synchronized by isolating eggs using alkaline hypochlorite treatment and hatching overnight. Larvae were plated onto NGM agar plates with OP50 and grown for 4 days before recording locomotion. For individual C. elegans recordings, a single adult animal was randomly picked, washed for 1 to 2 minutes in M9 buffer, and then transferred to a fresh NGM plate without food for imaging. Video images were acquired (2 frames per second) for up to 6 minutes using a sCMOS camera (pco.edge, PCO) mounted on a stereomicroscope (Olympus MVX10 MacroView) controlled using the μManager software.^55 A total of 40 individual animals were imaged for each strain. For C. elegans population recordings, ten adult animals were randomly removed using an eyelash pick, washed for 1 minute in M9 buffer, and then transferred to a fresh NGM plate without food, with a ring of copper sulfate solution (150 mM) around the area of recording (a chemorepellent to keep the animals in the recording frame). Exploratory locomotion was recorded using a CCD camera (GX1920, Allied Vision) which was attached to a dissecting stereomicroscope (Leica M165C, 1.0× PlanApo lens). A Labview program captured video (2 frames per second) at 1936×1456 resolution. Using ImageJ, the displacement, perimeter, and area of each animal was calculated, from which a circularity value was computed using the following formula: circularity=4π(A/P^2), where A is the area of the animal's body and P is the perimeter of the animal's body (both expressed in arbitrary pixel units). […] Using MATLAB (Mathworks), various behavioural metrics including the coiler score were calculated, which is the percentage of frames with a circularity value >0.6. Speed was automatically computed from the ImageJ based WrmTrk plugin as the distance travelled by each animal (in pixels) over the amount of time that it was tracked (in seconds).56 Average speed was determined by calculating the weighted average of each tracked animal's speed within a single population of animals. On the day of the recording for dopamine or raclopride treatment, adult animals were washed for 1 minute in M9 buffer, treated in a solution containing either drug for 1 minute, and then placed onto fresh NGM plates without food, with a copper sulfate solution ring around the area of recording. […] Drug plates were prepared by adding each drug to LB medium with OP50 before spreading onto fresh NGM plates. The solvent used to dissolve each drug was used as vehicle control for the drug treatment experiments (M9 buffer for dopamine, distilled water for raclopride, DMSO for all other drugs).
After 72 hours of drug treatment, animals were randomly picked, washed, and recorded. A total of ten worms were recorded per population, and twelve populations were recorded for each of the four treatment groups. Locomotion was recorded for each population over a total of 1800 frames over three minutes. The animal's movement speed, area, and perimeter were automatically analyzed as previously described. Coiler score was calculated automatically using a ratio of the animal's area to perimeter, where a higher coiler score would represent a greater degree of α-synuclein-induced dopaminergic neuron dysfunction in vivo.

control GFP C. elegans = experiment: Coiler score and locomotion of control GFP C. elegans; assay type: in vivo, Caenorhabditis elegans; details: 1 mM, animals not expressing α-synuclein
Description: Animals were synchronized by isolating eggs using alkaline hypochlorite treatment and hatching overnight. Larvae were plated onto NGM agar plates with OP50 and grown for 4 days before recording locomotion. For individual C. elegans recordings, a single adult animal was randomly picked, washed for 1 to 2 minutes in M9 buffer, and then transferred to a fresh NGM plate without food for imaging. Video images were acquired (2 frames per second) for up to 6 minutes using a sCMOS camera (pco.edge, PCO) mounted on a stereomicroscope (Olympus MVX10 MacroView) controlled using the μManager software.^55 A total of 40 individual animals were imaged for each strain. For C. elegans population recordings, ten adult animals were randomly removed using an eyelash pick, washed for 1 minute in M9 buffer, and then transferred to a fresh NGM plate without food, with a ring of copper sulfate solution (150 mM) around the area of recording (a chemorepellent to keep the animals in the recording frame). Exploratory locomotion was recorded using a CCD camera (GX1920, Allied Vision) which was attached to a dissecting stereomicroscope (Leica M165C, 1.0× PlanApo lens). […] Using ImageJ, the displacement, perimeter, and area of each animal was calculated, from which a circularity value was computed using the following formula: circularity=4π(A/P^2), where A is the area of the animal's body and P is the perimeter of the animal's body (both expressed in arbitrary pixel units). […] Using MATLAB (Mathworks), various behavioural metrics including the coiler score were calculated, which is the percentage of frames with a circularity value >0.6. Speed was automatically computed from the ImageJ based WrmTrk plugin as the distance travelled by each animal (in pixels) over the amount of time that it was tracked (in seconds).56 Average speed was determined by calculating the weighted average of each tracked animal's speed within a single population of animals. […]
C. elegans were grown and maintained as previously described (Examples 1-6). […] After 72 hours of drug treatment, animals were randomly picked, washed, and recorded. […]

CCCC(=O)Nc1ccc(OCC(O)CNC(C)C)c(C(C)=O)c1 (centres unmarked) [Acebutolol]
changes in the activity of full-length Gaussia luciferase alone ([1]; 10 μM, FIG. 14): No statistically significant changes
YFP fluorescence compared with vehicle control (α-synuclein oligomers [2]): No significant differences
α-syn oligomers as measured by luciferase activity (α-synuclein oligomers [3]): significant decrease

CC(=O)Nc1ccc(O)cc1 [Acetaminophen]
changes in viability (H4 neuroglioma cells): No statistically significant changes
changes in the activity of full-length Gaussia luciferase alone ([1]; Example 5, FIG. 5c): No statistically significant changes
reduction in coiling compared with vehicle alone (decrease) [4]: 32%
decrease in luciferase activity compared with vehicle alone (α-synuclein oligomers [3]): 14%

CO/C1=C\C(C)=C\[C@@H](C)[C@@H](O)[C@@H](C)C/C(C)=C/C=C/[C@H](OC)[C@@H]([C@@H](C)[C@@H](O)[C@H](C)[C@@]2(O)C[C@@H](O)[C@H](C)[C@@H](C(C)C)O2)OC1=O [Bafilomycin A1, bafilomycin A1]
change in α-synuclein oligomer levels (active controls) (α-synuclein oligomers [3]; rapamycin 2 μM, bafilomycin A1 50 nM): increase

CN(C)CCCOc1nn(Cc2ccccc2)c2ccccc12 [Benzydamine]
α-syn oligomers as measured by luciferase activity (α-synuclein oligomers [3]): significant decrease

Cn1c(=O)c2c(ncn2C)n(C)c1=O [Caffeine]
changes in the activity of full-length Gaussia luciferase alone ([1]; Example 5, FIG. 5c): No statistically significant changes
reduction in coiling compared with vehicle alone (decrease) [4]: 37%
decrease in luciferase activity compared with vehicle alone (α-synuclein oligomers [3]): 16%

Oc1c(I)cc(Cl)c2cccnc12 [Clioquinol]
α-syn oligomers as measured by luciferase activity (α-synuclein oligomers [3]): significant decrease

NCCc1ccc(O)c(O)c1 [Dopamine, dopamine]
coiling with exogenous dopamine ([4]; increasing concentrations, 1 minute treatment): decreased with treatment in a dose-dependent manner

COc1cc([C@@H]2c3cc4c(cc3[C@@H](O[C@@H]3O[C@@H]5CO[C@@H](C)O[C@H]5[C@H](O)[C@H]3O)[C@H]3COC(=O)[C@H]23)OCO4)cc(OC)c1O [Etoposide]
reduced cell survival (H4 neuroglioma cells): > 15%
decrease in luciferase activity compared with vehicle alone (α-synuclein oligomers [3]): 30%

Nc1ccn([C@@H]2CS[C@H](CO)O2)c(=O)n1 [Lamivudine]
changes in the activity of full-length Gaussia luciferase alone ([1]; 10 μM, FIG. 14): No statistically significant changes
YFP fluorescence compared with vehicle control (α-synuclein oligomers [2]): No significant differences
α-syn oligomers as measured by luciferase activity (α-synuclein oligomers [3]): significant decrease

Sc1ncnc2nc[nH]c12 [Mercaptopurine]
changes in viability (H4 neuroglioma cells): No statistically significant changes
changes in the activity of full-length Gaussia luciferase alone ([1]; Example 5, FIG. 5c): No statistically significant changes
effect on coiling / coiler score ([4]; 100 μM, 72 hr, vs DMSO vehicle): no effect
decrease in luciferase activity compared with vehicle alone (α-synuclein oligomers [3]): 17%

NC(=O)C[S+]([O-])C(c1ccccc1)c1ccccc1 (centres unmarked) [Modafinil]
reduced cell viability (decrease) (H4 neuroglioma cells; 1-20 μM, Example 9): 32%
concentration with significant loss in cell viability (H4 neuroglioma cells; drugs 1-20 μM, FIG. 13): < 5 µM
α-syn oligomers as measured by luciferase activity (α-synuclein oligomers [3]): significant decrease

CN1C(C(=O)Nc2ccccn2)=C(O)c2ccccc2S1(=O)=O [Piroxicam]
reduced cell survival (H4 neuroglioma cells): > 15%
decrease in luciferase activity compared with vehicle alone (α-synuclein oligomers [3]): 19%

CCN1CCC[C@H]1CNC(=O)c1c(O)c(Cl)cc(Cl)c1OC [Raclopride, raclopride]
coiling after D2 receptor blockade (control GFP C. elegans): recapitulated the coiling behaviour

CO[C@H]1C[C@@H]2CC[C@@H](C)[C@@](O)(O2)C(=O)C(=O)N2CCCC[C@H]2C(=O)O[C@H]([C@H](C)C[C@@H]2CC[C@@H](O)[C@H](OC)C2)CC(=O)[C@H](C)/C=C(\C)[C@@H](O)[C@@H](OC)C(=O)[C@H](C)C[C@H](C)/C=C/C=C/C=C/1C [Rapamycin]
changes in viability (H4 neuroglioma cells): No statistically significant changes
reduction in coiling compared with vehicle alone (decrease) [4]: 30%
decrease in fluorescence compared with vehicle alone (α-synuclein oligomers [2]; losartan 100 μM, rapamycin 50 nM, rifabutin 20 μM): 36%

Cn1c(=O)c2[nH]cnc2n(C)c1=O [Theophylline]
decrease in luciferase activity compared with vehicle alone (α-synuclein oligomers [3]): 8%

CC[C@]1(O)C[C@H]2CN(CCc3c([nH]c4ccccc34)[C@@](C(=O)OC)(c3cc4c(cc3OC)N(C=O)[C@H]3[C@@](O)(C(=O)OC)[C@H](OC(C)=O)[C@]5(CC)C=CCN6CC[C@]43[C@@H]65)C2)C1 [Vincristine]
reduced cell survival (H4 neuroglioma cells): > 15%
decrease in luciferase activity compared with vehicle alone (α-synuclein oligomers [3]): 33%

Reference: patent US20250134895A1, “METHODS AND COMPOSITIONS FOR TREATING ALPHA-SYNUCLEIN-MEDIATED NEURODEGENERATION” (UNIVERSITY HEALTH NETWORK, priority 2021, published 2025)
